# According to patent US20250092360A1, “METHODS AND COMPOSITIONS FOR GENERATING SOMATOSTATIN+ INTERNEURONS FROM HUMAN FOREBRAIN NEURAL PROGENITOR CELLS” (Trailhead Biosystems Inc., priority 2023, published 2025):
# Entries after “also recorded” stand apart in the source; their conditions may differ.
# Key:
# [1] = system: forebrain-committed neural stem cells; assay: HD-DoE stage 2, 12-factor experiment: NKX2-1 expression; type: cell-based, human; conditions: model / dynamic profile, in words
# Protocol: To further guide the differentiation of forebrain-committed neural stem cells to ventral forebrain neural stem cells at stage 2, a HD-DoE experiment was performed for 3 days after termination of stage 1 treatment. […] This 12-factor experiment included LDN193189, BMP7, PD0325901, MK2206, A8301, XAV939, CHIR99021, Purmorphamine, SANT-1, AGN193109, TTNPB and GSI-XX. […]
# [2] = system: human pluripotent stem cells; assay: HD-DoE stage 1, additional experiment: FEZF2 expression; type: cell-based
# Protocol: To identify the recipe for stage 1 of differentiation, 96 different combinations of effectors generated using Design-of-Experiments compression through D-optimality were robotically prepared. The effector combinations were prepared in a basal media and were subsequently added to the cells, which were then allowed to differentiate. Three days later RNA extraction was performed, and gene expression was obtained using quantitative PCR analysis. The data were normalized and modeled using partial least squares regression analysis to the effector design, resulting in the generation of gene-specific models, which after model tuning for maximal Q2 predictive power, provided explanation of the effectors ability to control the expression of individual genes, combinatorically, and individually. Solutions within the tested space could then be explored to address desirability. To further enhance the conditions for forebrain differentiation from pluripotency, an additional HD-DoE experiment was performed. Additional gene regulatory models were obtained that were used for preparation of the differentiation protocol. The factors in this experiment included LDN193189, PD173074, BLU9931, Purmorphamine, SC79, MK2206, ZM336372, PD0325901, CHIR99021, XAV939, UCLA-GP130, Tofacitinib and GO6983. […] Dynamic profile analysis was also used to assess the interaction between the effectors.
# [3] = system: human pluripotent stem cells; assay: HD-DoE stage 1, first 12-factor experiment: gene expression (qPCR) after 3-day treatment; type: cell-based
# Text: This example utilizes a method of High-Dimensional Design of Experiments (HD-DoE), as previously described in Bukys et al. (2020) […] 23:101346. The method employs computerized design geometries to simultaneously test multiple process inputs and offers mathematical modeling of a deep effector/response space. The method allows for finding combinatorial signaling inputs that control a complex process, such as during cell differentiation. It allows testing of multiple plausible critical process parameters, as such parameters impact output responses, such as gene expression. Because gene expression provides hallmark features of the phenotype of, for example, a human cell, the method can be applied to identify, and understand, which signaling pathways control cell fate. In the current example, the HD-DOE method was applied with the intent to find conditions for induction of […] neural progenitor-expressed genes, directly from the pluripotent stem cell state. To develop the recipe for each stage, the impact of agonists and antagonists of multiple signaling pathways (herein called effectors) on the expression of two sets of 53 pre-selected genes, after a 3-day treatment, has been tested and modeled. These effectors are small molecules or proteins that are commonly used during stepwise differentiation of stem cells to specific fates. Choice of the effectors were based on current literature on neural induction in forebrain region of developing brain and differentiation of stem cells to neural progenitors. To test the effectors, experiments with at least 8 factors were designed that can assess the response of cells to 48 or more different combinations of effectors in a range of concentrations. To analyze the models, we focused on expression of genes involved in development and patterning of the anterior neuroectoderm and forebrain including OTX2 (Hoch et al. (2015) Cell Reports 12:482-494), SIX3 (Lagutin et al. (2003) Genes & Development 17:368-379) and FEZF2 (Zhang et al. (2014) Development 141:4794-[…]). At later stages we focused on dorsoventral patterning of telencephalon and gene expressed in ventral forebrain including NKX2-1 and absence of PAX6 which is a dorsal forebrain marker (Stoykova et al. (2000) J. Neurosci. 20:8042-8050). The impact of each effector on gene expression level is defined by a parameter called factor contribution that is calculated for each effector during the modeling. To identify the recipe for stage 1 of differentiation, 96 different combinations of effectors generated using Design-of-Experiments compression through D-optimality were robotically prepared. The effector combinations were prepared in a basal media and were subsequently added to the cells, which were then allowed to differentiate. Three days later RNA extraction was performed, and gene expression was obtained using quantitative PCR analysis. The data were normalized and modeled using partial least squares regression analysis to the effector design, resulting in the generation of gene-specific models, which after model tuning for maximal Q2 predictive power, provided explanation of the effectors ability to control the expression of individual genes, combinatorically, and individually. Solutions within the tested space could then be explored to address desirability. Optimizing for maximal expression of SIX3 at 3300 and FEZF2 1355 expression values led to robust solutions. This model was derived from testing 12 effectors including AGN193109, LDN193189, CHIR99021, XAV939, IGF2, Purmorphamine, 4-oxo-RA, TTNPB, SR11237, FGF8, PD0325901 and […]. […] The model was also optimized for maximum expression of FEZF2 separately at 3576 expression value to find any additional factors that can boost expression of forebrain genes. […] To find the set of factors that have the potential to optimize all 3 genes in this experiment, a new assessment was done through dynamic profile analysis with focus on maximal expression of OTX2, FEZF2 and SIX3.
# [4] = system: forebrain-committed neural stem cells; assay: Factor criticality analysis, stage 2 recipe; type: cell-based, human; conditions: other three stage 2 factors present
# Protocol: (§1) To assess the impact of the elimination of each validated factor, dynamic profile analysis was used and compared the expression level of genes of interest in absence of each finalized factor while others are present.
# In the stage 2 recipe, each of the four finalized factors were removed while the other three factors remained present and expression levels of NKX2-1, PAX6 and NKX2-2 were assessed compared to presence of all four factors. Absence of PD0325901 reduced the levels of NKX2-1 and NKX2-2 while increasing PAX6 from 5000 to 3200, 100 to 0 and 0 to 5000, respectively. […] Removing XAV939 reduced the levels of NKX2-1 from 5000 to 3000, while increasing both PAX6 and NKX2-2 to 10000 and 200, respectively. Another observation was the interaction between XAV939 and Purmorphamine. In the absence of XAV939, the impact of Purmorphamine on NKX2-1 became negative and, as it is shown in interaction plot of FIG. 14, the level of NKX2-1 is higher when both factors are present.
# [5] = system: human pluripotent stem cells; assay: Factor criticality analysis, stage 1 recipe (dynamic profile analysis); type: cell-based; conditions: other five stage 1 factors present, FIG. 11
# Text: as §1, with “present. […] When Purmorphamine was removed, levels of FEZF2 and SIX3 were decreased to 1000 and below 3000, while levels of OTX2 increased to 6500.” for “present.”
# [6] = system: medial ganglionic eminence (MGE)-derived neural progenitors; assay: Factor criticality analysis, stage 4 recipe; type: cell-based, human; conditions: FIG. 27, in words
# Protocol: To assess the impact of elimination of each validated factor, dynamic profile analysis was again used to compare the expression levels of genes of interest in the absence of each finalized factor while the others were present in the media.
# In the stage 4 recipe, each of the five finalized factors was removed while the other four factors remained present in the media and the expression level of forebrain genes was assessed compared to the presence of all 6 factors. SOX6 expression was reported to determine the cortical interneuron-precursors cell fate (see e.g., Azim et al. (2009) Nature Neurosci. 12:1238-1247; Batista-Brito et al. (2009) Neuron 63:466-481). Therefore, optimization of SOX6 expression was focused on at this stage.
# [7] = system: stage 2 neural stem cells; assay: HD-DoE stage 3 experiment: ASCL1, LHX6, DLX1 expression; type: cell-based, human
# Protocol: To further guide the cells to medial ganglionic eminence progenitor fate, an additional HD-DoE experiment was performed for 3 days on cells that were treated with stage 1 and stage 2 media for total of 6 days prior to start of the experiment. This experiment included 13 effectors, LDN193189, A8301, GNF5837, AZD3147, GSI-XX, Takinib, PD0325901, PD173074, BLU9931, IGF-1, MHY1485, Purmorphamine and Prostratin. In this model, we focused on maximum expression of genes expressed in neuronal progenitor cells in medial ganglionic eminence (MGE) region including ASCL1, LHX6 and DLX1 (Silberberg et al. (2016) Neuron 92:59-74). When the model was optimized for maximum expression of ASCL1 at 1700, A8301, GSI-XX, Purmorphamine and Takinib, which is an inhibitor of TAK1 pathway, had the highest factor contributions, 18.1, 14.1, 12.7 and 10.1 respectively. […] MHY 1485 also had positive contribution however the factor was below 2 (FIG. 9).
# Therefore, six effectors including A8301, GSI-XX, Takinib, GNF5837, IGF-1 and Purmorphamine were finalized as ingredients of stage 3 differentiation media. A representative recipe for Stage 3 differentiation is summarized below in Table 3.
# [8] = system: medial ganglionic eminence (MGE)-derived neural progenitors; assay: HD-DoE stage 4, 12-factor experiment: SOX6 expression; type: cell-based, human
# Text: These effectors are small chemical compounds or proteins. They are commonly used during the differentiation of stem cells to specific cell linage. The choice of the effectors was based on the current literature on forebrain neural induction and differentiation of neural progenitor cells to mature neurons.
# To evaluate the effectors on SST differentiation, experiments with 8 or 12 factors were designed to assess the responses of cells to 48 or more combinations of effectors in a range of concentrations. To analyze the models, we focused on expression of genes involved in development and patterning of the forebrain interneurons maturation including LHX6 (Liodis et al. (2007) J. Neurosci. 27:3078-3089; Yuan et al. (2018) Elife 7: e37382), SOX6 (Azim et al. (2009) Nature Neurosci. 12:1238-1247; Batista-Brito et al. (2009) Neuron 63:466-481), DLX5 (de Lombares et al. (2019) Aging (Albany NY) 11:6638; Wang et al. (2010) J. Neurosci. 30:5334-5345) and ASCL1 (Barretto et al. (2020) J. Neurosci. Meth. 334:108548; Shi et al. (2016) J. Biol. Chem. 291:13560-13570). At later stages we focused on interneuron maturation genes including somatostatin and absence of Parvalbumin (Horn and Nicoll (2018) Proc. Natl. Acad. Sci. 115:589-594). The impacts of each effector on gene expression level are defined by a parameter called factor contribution that is calculated for each effector during the modeling.
# To identify the recipe for differentiation at stage 4, at least 48 different combinations of effectors were robotically prepared by the Design-of-Experiments compression through D-optimality. The effector combinations were prepared in a basal media and were subsequently added to the cells, which were then allowed to differentiate. Three days later, RNA extraction was performed, and gene expression levels were examined using quantitative PCR analysis. The data was normalized and modeled using partial least squares regression analysis to the effector design, resulting in the generation of gene-specific models, which after model tuning for maximal predictive power, provided explanation of the effectors ability to control the expression of individual genes, combinatorically, and individually. Solutions within the tested space could then be explored to address desirability.
# IGF-1 activates the IGF-1 pathway, promotes neuron axonal growth, and establishes the synapse of interneurons. GDNF is the […] and can activate the GDNF pathway. MK2206 is an AKT inhibitor and can inhibit cell proliferation and promote neuronal maturation. PD173074 and BLU-554 are FGFR inhibitors. The FGF pathway is required for the maintenance of neural progenitor cells. Inhibition of the FGFR pathway promotes neural maturation. GSI-XX is a notch pathway inhibitor. Notch pathway inhibits neural progenitor cell differentiation. Inhibition of the Notch pathway promotes neural differentiation.
# To find the set of factors that have the potential to optimize SOX6 in this experiment, a new assessment was done through dynamic profile analysis with focus on maximal expression of SOX6.
# [9] = system: stage 2 neural stem cells; assay: Factor criticality analysis, stage 3 recipe; type: cell-based, human; conditions: other five stage 3 factors present
# Protocol: as §1
# In the stage 3 recipe, each of the six finalized factors were removed while the other five factors remained present and the expression levels of ASCL1, DLX1 and LHX6 were assessed compared to the presence of all six factors. […] As expected, in the absence of IGF-1, the value of DLX1 increases to 410, however, ASCL1 and LHX6 decreased to 1390 and 220, respectively.
molecule,measurement,setting,value
Oc1nc(-c2ccc(C(F)(F)F)cc2)nc2c1CSCC2 [XAV939],impact on expression of NKX2-1,[1],increase; also recorded: Positive impact
same,impact on expression of FEZF2,"[2]; dynamic profile, in words",positive impact
same,"factor contribution, expression of FEZF2","[2]; positive impact, additional stage 1 experiment optimized for FEZF2",12
same,impact on expression of OTX2,"[3]; dynamic profile / model, in words",positive impact
same,"factor contribution, expression of SIX3","[3]; positive impact, model optimized for maximal SIX3, 3-day treatment, qPCR",5
same,expression level of PAX6 when the factor is removed,[4]; 0 with all four factors,10000
same,expression level of NKX2-2 when the factor is removed,[4]; 100 with all four factors,200
same,expression level of NKX2-1 when the factor is removed,[4]; 5000 with all four factors,3000
same,expression level of FEZF2 when the factor is removed,[5]; 2000 with all six factors,1700
same,expression level of SIX3 when the factor is removed,[5]; 3000 with all six factors,1000
same,expression level of OTX2 when the factor is removed,[5]; 5500 with all six factors,5000
IGF-1: Growth factor; activates the IGF-1 pathway,effect on SOX6 expression,[6],increase
same,impact on expression of ASCL1,"[7]; dynamic profile, in words",positive effect
same,impact on expression of DLX1,"[7]; dynamic profile, in words",negative impact
same,impact on expression of LHX6,"[7]; dynamic profile, in words",positive effect
same,"factor contribution, expression of ASCL1","[7]; positive, model optimized for maximum ASCL1 at 1700",7
same,impact on expression of SOX6,"[8]; dynamic profile, in words",positive impact
same,"factor contribution, expression of SOX6","[8]; positive impact, model optimized for maximal SOX6 at 1442",2.9
same,expression level of DLX1 when the factor is removed,[9]; 220 with all six factors,410
same,expression level of LHX6 when the factor is removed,[9]; 240 with all six factors,220
same,expression level of ASCL1 when the factor is removed,[9]; 1650 with all six factors,1390
